# Data published in PMC3629081, “Tetrahydropyrazolo[1,5-a]Pyrimidine-3-Carboxamide and N-Benzyl-6′,7′-Dihydrospiro[Piperidine-4,4′-Thieno[3,2-c]Pyran] Analogues with Bactericidal Efficacy against Mycobacterium tuberculosis Targeting MmpL3” (PLoS ONE, 2013).
# Values joined by “and” are separate entries in the source; they are usually repeats but may differ in a detail not shown here. Equal entries are not always repeated. Where two headings read alike, the source gives them in different places. Marks after values point to notes of the source that are not given here.
# How the values were obtained:
# [1] = system: GFP expressing M. tuberculosis H37Rv in Raw264.7 macrophages; assay: microbe, parasite or virus in culture; assay type: cell-based, Mycobacterium tuberculosis; settings: read-out: Intracell. H37Rv MIC80
# [2] = in words
# M. tuberculosis H37Rv [3] = assay: MIC determination against M. tuberculosis H37Rv (resazurin); assay type: cell-based, Mycobacterium tuberculosis
# [4] = system: clinical M. tuberculosis isolates; assay: MIC against clinical strains (BACTEC MGIT 960); assay type: cell-based, Mycobacterium tuberculosis; settings: for MIC90: Mycobacterium tuberculosis, read-out: M. tuberculosis MIC90 (108 strains)
# [5] = assay type: in vitro ADME, mouse
# Protocol: (§1) Pooled mouse, rat, dog and human liver microsomes were purchased from Xenotech. Microsomes (final protein concentration 0.5 mg/ml, MgCl2 (final concentration 5 mM) and test compound (final substrate concentration 0.5 µM; final DMSO concentration 0.5 %) in 0.1 M phosphate buffer pH 7.4 were pre-incubated at 37°C prior to the addition of NADPH (final concentration 1 mM) to initiate the reaction. The final incubation volume was 600 µl. Control incubation was included for each compound tested where 0.1 M phosphate buffer pH 7.4 was added instead of NADPH (minus NADPH). One control compound was included with each species. All incubations were performed singularly for each test compound. Each compound was incubated for 30 minutes and samples (90 µl) of incubate were taken at 0, 5, 10, 20 and 30 minutes. The control (minus NADPH) was sampled at 0 and 30 minutes only. The reactions were stopped by the addition of sample to 200 µl of acetonitrile:methanol (3∶1) containing an internal standard. The terminated samples were centrifuged at 3700 rpm for 15 minutes at 4°C to precipitate the protein. Quantitative analysis: following protein precipitation, the samples were analyzed using specific LC-MS/MS conditions. Data analysis: from a plot of ln peak area ratio (compound peak area/internal standard peak area) against time, the gradient of the line was determined. Subsequently, half-life and intrinsic clearance were calculated using the equations below:
# (§2) Elimination rate constant (k) = (-gradient) Half life [drawing 1]
# (§3) Intrinsic Clearance (CLint) (ml/min/g protein) = [drawing 2] where V = Incubation volume ml/g microsomal protein.
# M. bovis BCG = assay type: cell-based, Mycobacterium bovis BCG
# M. tuberculosis = assay: Killing kinetics assay; assay type: cell-based, Mycobacterium tuberculosis; settings: for reduction of cfu counts after one week of treatment: 20x MIC; for in vitro killing behaviour: kill rate over 7 days
# [6] = system: panel of Gram-positive and Gram-negative organisms; assay: General antimicrobial activity assay (broth microdilution); assay type: cell-based; settings: read-out: Antibacterial panel IC50
# Protocol: Whole-cell antimicrobial activity was determined by broth microdilution using the Clinical and Laboratory Standards Institute (CLSI) recommended procedure, Document M7-A7, “Methods for Dilution Susceptibility Tests for Bacteria that Grow Aerobically”. Some compounds have been evaluated against a panel of Gram-positive and Gram-negative organisms, including Enterococcus faecium, Enterococcus faecalis, Haemophilus influenzae, Moraxella catarrhalis, Streptococcus pneumoniae, Escherichia coli and Streptococcus pyogenes. The MIC was determined as the lowest concentration of compound producing a >80 % reduction in fluorescence observed.
# [7] = assay type: in vitro ADME, human; settings: for Cli human: human microsomes
# Protocol: as §1, §2, §3
# HepG2 cells = assay type: cell-based, human; settings: for HepG2 Tox50: 48 h incubation
# Protocol: Cytotoxicity assay was performed measuring the viability of immortalized human cell line culture (HepG2) after 48 h of incubation with a full curve concentration of the test substances in culture medium. For read out of viability of cells we used Resazurine (BDH®). Resazurin is used as an oxidation-reduction indicator that yields a colorimetric change and a fluorescent signal in response to metabolic activity. As cell grow, metabolic activity results in a chemical reduction of Resazurin indicated by a change from non-fluorescent blue to the reduced fluorescent pink form. The degree of Resazurin fluorescence is therefore, an indicator of the number of viable cells in the culture system. The cytotoxicity results were expressed as Tox50 values (IC50). This was done by calculating the concentration of test compounds that would result in a decrease in Resazurin reduction equivalent to 50% of the concurrent control values. The protocol we followed is described below briefly.
# Cell line HepG2 (HB-8065) were cultured with fresh medium (Essential Minimum Eagle Medium, EMEM, supplemented with 5% fetal calf serum and 2 mM L-glutamine) the day before subculturing the plates. On the day of the assay, cells (10,000 cells/well) were seeded in a black 96-well collagen coated microplate with clear bottom, (Becton Dickinson®) except in column 11, that was dispensed only 100 μL of culture medium.
# Stock solution from each test substances was prepared in 100% DMSO. Ten serial 1∶2 dilutions were prepared of each test compound and, finally, a 1∶200 dilution was made, in medium, to achieve a final concentration of 0.5% of DMSO. Resazurin tablets (Merck®) were dissolved in phosphate buffer saline at a concentration of 0.0042%.
# After 24 h of incubation of the cells (37°C, 5% CO2, 95% relative humidity), a volume of 150 μL of culture medium containing the appropriate test concentrations of the compounds dilutions were added to cells in two replicates. In column 12, only 150 μL of 0.5% DMSO was added (blank control). Then, cells were exposed to test compounds for 48 h. After that, medium was removed and Resazurin solution was added to each well and incubated for further 1.5 h. Fluorescence was measured at an excitation wavelength of 515 nm and an emission wavelength of 590 nm in a Microplate reader 1420 Multilabel HTS counter, Victor 2, (Wallac®) The fluorescence value of each well is corrected by subtracting the background value (average of column 11) from the absolute value. The percentages of inhibition are calculated relatively to the DMSO control wells (average of column 12). For each compound, the average value of the duplicate samples is calculated. Data were processed using an Excel spreadsheet and GraphPad Software analysis. Tox50 values were calculated from the Sigmoidal dose-response (variable slope) curves by nonlinear regression analysis.
# in vivo = assay: in vivo; design: species or system mice
# Protocol: Figure 5 Whole blood pharmacokinetic profile and main parameters of compounds 3 and 4. Compounds were given orally at 50 mg/Kg suspension in 1% aqueous methylcellulose. Main pharmacokinetic parameters were established after non-compartimental analysis. AUC: Area Under the Curve; Cmax: Maximum concentration observed in whole blood; %F: percentage bioavailability. TEXT PRINTED IN THE PICTURE: 3: Tmax (h): 3.0 ± 2.8 (Dose (mg/kg): 50); Cmax (μg/ml): 1.8 ± 0.5 (Dose (mg/kg): 50); AUC0-24h (μg*h/ml): 26.2 ± 9.4 (Dose (mg/kg): 50); DNAUC0-24h (μg*h/ml per mg/kg): 0.6 ± 0.2 (Dose (mg/kg): 50); %F: 96.1 ± 32.2 (Dose (mg/kg): 50) | 4: Tmax (h): 0.7 ± 0.1 (Dose (mg/kg): 50); Cmax (μg/ml): 1.3 ± 0.2 (Dose (mg/kg): 50); AUC0-24h (μg*h/ml): 8.7 ± 0.6 (Dose (mg/kg): 50); DNAUC0-24h (μg*h/ml per mg/kg): 0.20 ± 0.01 (Dose (mg/kg): 50); %F: 54.6 ± 5.4 (Dose (mg/kg): 50)
# Experimental compounds were administered by oral gavage at 50 mg/kg single dose at a volume of 20 ml/kg to n = 5 mice. All mice received treatment in the fed state. Peripheral total blood was the compartment chosen for the establishment of compound concentrations: 25 μl of blood was taken from the lateral tail vein for each mouse at 15, 30 and 45 minutes, 1, 2, 4, 8 and 24 hours. LC-MS was used as the analytical method of choice for the establishment of compound concentration in blood with a sensitivity of LLQ = 1–5 ng/ml in 25 µl blood. The non-compartmental data analysis (NCA) was performed with WinNonlin Phoenix 6.3 (Pharsight, Certara L.P) and supplementary analysis was performed with GraphPad Prism 5 (GraphPad Software, Inc).
# M. tuberculosis H37Rv [8] = assay: In vivo efficacy in acute TB murine model; design: species or system Mycobacterium tuberculosis
# [9] = Mycobacterium tuberculosis, H37RV
# [10] = Sensitive phenotype, 60 strains
# [11] = monoR H (Isoniazid), 20 strains
# [12] = monoR Rf (Rifampicin), 3 strains
# [13] = monoR Sm (Streptomycin), 11 strains
Structure (SMILES),"MIC80 [1, 9] [µM]",MIC (M. tuberculosis H37Rv [3]; Mycobacterium tuberculosis) [µM],Range of MIC's [4],MIC90 [4] [µM],"Range of MIC's [4, 10] [µM]","Range of MIC's [4, 11] [µM]","Range of MIC's [4, 12] [µM]","Range of MIC's [4, 13] [µM]",Cli mouse ([5]; mouse microsomes) [mL/min/g],effect on TMM in [14C]-labelled cultures (M. bovis BCG),"effect on other classes of lipids, in particular phospholipids (M. bovis BCG)",reduction of cfu counts after one week of treatment (M. tuberculosis) [log cfu],in vitro killing behaviour (M. tuberculosis),solubility (physchem) [µM],IC50 [6] [µM],Cli human [7] [mL/min/g],HepG2 Tox50 (HepG2 cells),also measured
"CCc1ccc([C@H]2C[C@@H](C(F)(F)F)n3ncc(C(=O)NCc4ccc(OC)cc4)c3N2)cc1 [Compound 1, (5R,7S)-5-(4-ethylphenyl)-N-(4-methoxybenzyl)-7-(trifluoromethyl)-4,5,6,7-tetrahydropyrazolo[1,5-a]pyrimidine-3-carboxamide]",0.16,0.3,0.16 to 2.5 µM and 0.3 to 5 µM,0.6,0.16 to 0.6,0.16 to 0.6,0.16 to 0.3,0.16 to 0.6,0.69,accumulation of TMM,unaffected,> 3,bactericidal,5,≥ 32,0.29,>25 ^* µM,solubility in different media [2]: very low solubility; signs of cytotoxicity at the maximum concentration tested (HepG2 cells; maximum concentration where compound was in solution): did not show initial signs of cytotoxicity
c1cc2c(s1)CCOC21CCN(Cc2ccc3c(c2)OCCO3)CC1 [Compound 2],0.63,0.3,0.3 to 1.25 µM,0.6,0.3 to 1.25,0.3 to 10,0.6 to 10,0.3 to 10,>30,accumulation of TMM,unaffected,> 3,bactericidal,266,≥ 16,25,36 µM,intrinsic clearance values in mice microsomes ([5]; in words): poor; intrinsic clearance values in human microsomes ([7]; in words): poor
CCc1ccc([C@H]2C[C@@H](C(F)(F)F)n3ncc(C(=O)NCc4ccc5c(c4)OCO5)c3N2)cc1 [Compound 3],,< 0.5,,,,,,,0.8,,,,,,,,> 25 µM,"MIC80 [1]: 0.31 µM; DNAUC0-24h (in vivo; mice, oral 50 mg/kg, whole blood): 0.6 ± 0.2 μg*h/ml per mg/kg; AUC(0-t) (in vivo; mouse, in vivo, po, 50 mg/kg, mice, oral 50 mg/kg, whole blood, read-out: AUC0-24h): 26200 ± 9400 ng·h/mL; AUC(0-t) (in vivo; mouse, in vivo, po, 50 mg/kg, po 50 mg/kg (Figure 4), read-out: AUC 24h): 26500 ng·h/mL; AUC (in vivo; mouse, in vivo, po, 50 mg/kg, minimum requirement fulfilled, read-out: AUC after oral administration 50 mg/kg): > 1000 ng·h/mL; bioavailability (in vivo; mouse, in vivo, mice, oral 50 mg/kg, whole blood, read-out: %F): 96.1 ± 32.2%; Cmax (in vivo; mouse, in vivo, mice, oral 50 mg/kg, whole blood, read-out: Cmax): 1800 ± 500 ng/mL; Tmax (in vivo; mouse, in vivo, mice, oral 50 mg/kg, whole blood, read-out: Tmax): 3 ± 2.8 h; MIC (M. tuberculosis H37Rv [3]): 0.16 µM; reduction in lung bacterial load (M. tuberculosis H37Rv [8]; 100 mg/kg orally once a day, day 1 to day 8, B6 mice): 1.5 log units; reduction in lung bacterial load (M. tuberculosis H37Rv [8]; 300 mg/kg orally once a day, day 1 to day 8, B6 mice): 2.2 log units"
Cl.FC(F)(F)Oc1ccc(Oc2ccc(CN3CCC4(CC3)OCCc3sccc34)cc2)cc1 [Compound 4],,,,,,,,,,,,,,,,,36 µM,"AUC (in vivo; mouse, in vivo, po, 50 mg/kg): > 1000 ng·h/mL; Cmax (in vivo; mouse, in vivo, po, 50 mg/kg): 1300 ± 200 ng/mL; DNAUC0-24h (in vivo; mouse, in vivo, po, 50 mg/kg): 0.20 ± 0.01 μg*h/ml per mg/kg; Tmax (in vivo; mouse, in vivo, po, 50 mg/kg): 0.7 ± 0.1 h; bioavailability (in vivo; mouse, in vivo, po, 50 mg/kg): 54.6 ± 5.4%; AUC(0-t) (in vivo; mouse, in vivo, po, 50 mg/kg, AUC0-24h): 8700 ± 600 ng·h/mL; AUC(0-t) (in vivo; mouse, in vivo, po, 50 mg/kg, AUC 24h): 8700 ng·h/mL; Cli mouse ([5]; mouse, pH 7.4): 1.2 mL/min/g; reduction in lung bacterial load (M. tuberculosis H37Rv [8]; in vivo): 2.3 log units and 2.7 log units"
